Measured values as given in ChEMBL document CHEMBL2062393, “Drugs for stroke: action of nitrone (Z)-N-(2-bromo-5-hydroxy-4-methoxybenzylidene)-2-methylpropan-2-amine oxide on rat cortical neurons in culture subjected to oxygen-glucose-deprivation” (Eur J Med Chem, 2012).
Active and inactive are the calls of the source. No cut-off for these calls is given here.

Legend:
Type in all cases: functional
Cortical neurone [1] = test: Neuroprotective activity against Wistar rat Cortical neurons assessed as reduction of oxygen-glucose-deprivation-induced cell death at 1 to 10 uM treated during reperfusion measured after 24 hrs by XTT assay
Cortical neurone [2] = test: Neuroprotective activity against Wistar rat Cortical neurons assessed as reduction of oxygen-glucose-deprivation-induced cell death at 100 uM treated during reperfusion measured after 24 hrs by XTT assay
Cortical neurone [3] = test: Neuroprotective activity against Wistar rat Cortical neurons assessed as reduction of oxygen-glucose-deprivation-induced ROS production at 1 uM treated during reperfusion measured after 24 hrs by H2DCF-DA assay
Cortical neurone [4] = test: Neuroprotective activity against Wistar rat Cortical neurons assessed as reduction of oxygen-glucose-deprivation-induced lipid peroxidation at 1 uM treated during reperfusion measured after 24 hrs by TBARS method
Cortical neurone [5] = test: Neuroprotective activity against Wistar rat Cortical neurons assessed as reduction of oxygen-glucose-deprivation-induced lipid peroxidation at 100 uM treated during reperfusion measured after 24 hrs by TBARS method
Cortical neurone [6] = test: Neuroprotective activity against Wistar rat Cortical neurons assessed as reduction of oxygen-glucose-deprivation-induced LDH release at 1 to 100 uM treated during reperfusion measured after 24 hrs
Cortical neurone [7] = test: Neuroprotective activity against Wistar rat Cortical neurons assessed as reduction of oxygen-glucose-deprivation-induced caspase-3 activity at 1 to 100 uM treated during reperfusion measured after 24 hrs by spectrofluorometer analysis
Cortical neurone [8] = test: Neuroprotective activity against Wistar rat Cortical neurons assessed as reduction of oxygen-glucose-deprivation-induced mitochondrial membrane potential at 1 to 100 uM treated during reperfusion measured after 24 hrs by spectrofluorometer analysis

In the case of `COc1cc(Br)c(/C=[N+](\[O-])C(C)(C)C)cc1O`, the Activity (Cortical neurone [1]) is reported as “inactive”, the Activity (Cortical neurone [2]) is reported as “Active” and the Activity (Cortical neurone [3]) is reported as “Active”. The Activity (Cortical neurone [4]) was “Active”, the Activity (Cortical neurone [5]) was “inactive” and the Activity (Cortical neurone [6]) was “Active”. For the same compound, the Activity (Cortical neurone [7]) was “Active” and the Activity (Cortical neurone [8]) was “inactive”.
